One data set deals with Staphylococcus aureus. As to the kind of experiment: Antibacterial activity against Staphylococcus aureus ATCC 6538 after 24 hrs by MTT assay. It is filed as functional. To be noted: ATCC 6538, 24 h. Background: Tetrazolium assays rely on reduction of a dye to a coloured formazan, in cell work by metabolically active cells.
The test system of the next data set is Escherichia coli. As to the kind of experiment: Antibacterial activity against Escherichia coli ATCC 35218 after 24 hrs by MTT assay. It is filed as functional. The conditions noted are these: ATCC 35218, 24 h.
Another data set concerns Pseudomonas aeruginosa. As to the kind of experiment: Antibacterial activity against Pseudomonas aeruginosa ATCC 13525 after 24 hrs by MTT assay. It is filed as functional. To be noted: ATCC 13525, 24 h.
The test system of the next data set is Bacillus spizizenii. Nature of the data set: Antibacterial activity against Bacillus subtilis ATCC 6633 after 24 hrs by MTT assay. The conditions noted are these: ATCC 6633, 24 h. It is filed as functional.
A short description of data set [1]: Hemolytic activity in RBC (uinknown origin). It is filed as cell-based. To be noted: erythrocyte.
Data set [2] can be described thus: Displacement of [3H]acetyl-CoA from Escherichia coli full-length beta-ketoacyl-ACP synthase3 expressed in Escherichia coli BL21 (DE3) by liquid scintillation counting analysis. (Displacement assays read how much labelled ligand stays bound in the presence of the test substance.)

Results on 26 compounds are retold here after ChEMBL document CHEMBL2401689, “Design, synthesis and antibacterial activity studies of thiazole derivatives as potent ecKAS III inhibitors” (Bioorg Med Chem Lett, 2013).

In brackets after ≈: the same amount, converted by molar mass.

Usually MIC stands for the lowest concentration found to suppress growth. For `O=C(Nc1nc(-c2ccccc2)cs1)N1CCOCC1`, the minimal inhibitory concentration (MIC) with Staphylococcus aureus, in the data set on Escherichia coli, in the data set with Pseudomonas aeruginosa and against Bacillus spizizenii was above 100 µg/mL in each case.
Broadly, the IC50 is the point on the concentration scale where inhibition reaches its midpoint. A high value points to weaker potency. On to `O=C(Cc1cccc(Cl)c1)Nc1nc(-c2ccc(Br)cc2)cs1`, for which the MIC was found to be 3.13 µg/mL (≈ 7.68 µM) against Staphylococcus aureus, 1.56 µg/mL (≈ 3.83 µM) with Escherichia coli, 3.13 µg/mL (≈ 7.68 µM) against Pseudomonas aeruginosa and 6.25 µg/mL (≈ 15.3 µM) with Bacillus spizizenii. Also, in data set [1], the LC30 is above 10000 µg/mL. Moreover, the half-inhibitory concentration (IC50) in data set [2] worked out at 5.3 µM.
Consider `CCOc1ccc(CC(=O)Nc2nc(-c3ccc(Br)cc3)cs2)cc1OCC`, for which the MIC with Staphylococcus aureus was above 100 µg/mL; with Escherichia coli, 50 µg/mL (≈ 108 µM); in the data set with Pseudomonas aeruginosa it was 25 µg/mL (≈ 54.2 µM); against Bacillus spizizenii it was 50 µg/mL (≈ 108 µM).
`O=C(Cc1cccc(Cl)c1)Nc1nc(-c2ccccc2)cs1`: the minimal inhibitory concentration (MIC) against Staphylococcus aureus worked out at 6.25 µg/mL (≈ 19 µM); against Escherichia coli, 6.25 µg/mL (≈ 19 µM); in the data set with Pseudomonas aeruginosa it was 6.25 µg/mL (≈ 19 µM); in the data set with Bacillus spizizenii, 12.5 µg/mL (≈ 38 µM). The LC30 in data set [1] is above 10000 µg/mL. In data set [2], this compound yielded an IC50 of 12.3 µM.
For `O=C(Cc1ccc(F)cc1)Nc1nc(-c2ccccc2)cs1`, the minimum inhibitory concentration (MIC) turned out to be 12.5 µg/mL (≈ 40 µM) in the data set on Staphylococcus aureus, 12.5 µg/mL (≈ 40 µM) against Escherichia coli, 25 µg/mL (≈ 80 µM) against Pseudomonas aeruginosa and 12.5 µg/mL (≈ 40 µM) in the data set with Bacillus spizizenii. The same compound came in with an LC30 in data set [1] above 10000 µg/mL. The compound further displayed an IC50 in data set [2] of 38.4 µM.
On to `COc1cccc(CC(=O)Nc2nc(-c3ccccc3)cs2)c1`, for which the MIC amounted to 50 µg/mL (≈ 154 µM) in the data set on Staphylococcus aureus, 50 µg/mL (≈ 154 µM) with Escherichia coli, 50 µg/mL (≈ 154 µM) against Pseudomonas aeruginosa and 100 µg/mL (≈ 308 µM) against Bacillus spizizenii.
As to `O=C(Nc1nc(-c2ccc(Br)cc2)cs1)c1cccc2ccccc12`, the MIC against Staphylococcus aureus is above 100 µg/mL; in the data set with Escherichia coli it was 50 µg/mL (≈ 122 µM); in the data set on Pseudomonas aeruginosa, 100 µg/mL (≈ 244 µM); against Bacillus spizizenii, above 100 µg/mL.
Regarding `O=C(Nc1nc(-c2ccccc2)cs1)c1cccc2ccccc12`, the minimal inhibitory concentration (MIC) against Staphylococcus aureus, against Escherichia coli, against Pseudomonas aeruginosa and against Bacillus spizizenii was above 100 µg/mL throughout.
With `O=C(Cc1ccccc1)Nc1nc(-c2ccccc2)cs1`, the minimal inhibitory concentration (MIC) was 25 µg/mL (≈ 84.9 µM) with Staphylococcus aureus, 100 µg/mL (≈ 340 µM) with Escherichia coli, 100 µg/mL (≈ 340 µM) in the data set on Pseudomonas aeruginosa and 50 µg/mL (≈ 170 µM) in the data set on Bacillus spizizenii.
On to `O=C(Cc1ccc(Cl)cc1)Nc1nc(-c2ccc(Br)cc2)cs1`, for which the minimal inhibitory concentration (MIC) against Staphylococcus aureus is 12.5 µg/mL (≈ 30.7 µM); with Escherichia coli, 12.5 µg/mL (≈ 30.7 µM); with Pseudomonas aeruginosa it was 25 µg/mL (≈ 61.3 µM); in the data set with Bacillus spizizenii, 12.5 µg/mL (≈ 30.7 µM). In data set [1], this compound came in with an LC30 above 10000 µg/mL. For the same compound, the half-inhibitory concentration (IC50) in data set [2] came out at 34.7 µM.
For the compound `O=C(Nc1nc(-c2ccccc2)cs1)c1ccc2ccccc2c1`, the MIC is above 100 µg/mL against Staphylococcus aureus, above 100 µg/mL in the data set on Escherichia coli, above 100 µg/mL in the data set on Pseudomonas aeruginosa and 50 µg/mL (≈ 151 µM) in the data set on Bacillus spizizenii.
For `O=C(Cc1ccc(Br)cc1)Nc1nc(-c2ccc(Br)cc2)cs1`, the minimal inhibitory concentration (MIC) against Staphylococcus aureus was 25 µg/mL (≈ 55.3 µM); against Escherichia coli it was 25 µg/mL (≈ 55.3 µM); against Pseudomonas aeruginosa, 50 µg/mL (≈ 111 µM); against Bacillus spizizenii it was 25 µg/mL (≈ 55.3 µM). The LC30 in data set [1] was above 10000 µg/mL. In data set [2], this compound had an IC50 of 48.1 µM.
`O=C(Cc1ccc(F)cc1)Nc1nc(-c2ccc(Br)cc2)cs1`: the MIC in the data set with Staphylococcus aureus worked out at 12.5 µg/mL (≈ 31.9 µM); against Escherichia coli, 12.5 µg/mL (≈ 31.9 µM); in the data set on Pseudomonas aeruginosa it was 12.5 µg/mL (≈ 31.9 µM); in the data set with Bacillus spizizenii it was 6.25 µg/mL (≈ 16 µM). The same compound gave an LC30 in data set [1] above 10000 µg/mL. In data set [2], the half-inhibitory concentration (IC50) amounted to 29.3 µM.
With `O=C(Nc1nc(-c2ccc(Br)cc2)cs1)N1CCOCC1`, the minimum inhibitory concentration (MIC) against Staphylococcus aureus was above 100 µg/mL; in the data set with Escherichia coli it was 50 µg/mL (≈ 136 µM); in the data set with Pseudomonas aeruginosa, above 100 µg/mL; against Bacillus spizizenii it was 100 µg/mL (≈ 272 µM).
As for `O=C(Cc1ccc(Cl)cc1)Nc1nc(-c2ccccc2)cs1`, the minimal inhibitory concentration (MIC) with Staphylococcus aureus amounted to 25 µg/mL (≈ 76 µM); against Escherichia coli, 25 µg/mL (≈ 76 µM); in the data set with Pseudomonas aeruginosa, 25 µg/mL (≈ 76 µM); in the data set with Bacillus spizizenii, 12.5 µg/mL (≈ 38 µM). The LC30 in data set [1] was above 10000 µg/mL. The same compound displayed an IC50 in data set [2] of 41.8 µM.
For `COc1cccc(CC(=O)Nc2nc(-c3ccc(Br)cc3)cs2)c1`, the minimal inhibitory concentration (MIC) with Staphylococcus aureus was found to be 50 µg/mL (≈ 124 µM); with Escherichia coli, 25 µg/mL (≈ 62 µM); in the data set on Pseudomonas aeruginosa, 50 µg/mL (≈ 124 µM); with Bacillus spizizenii it was 25 µg/mL (≈ 62 µM). In addition, the LC30 in data set [1] is above 10000 µg/mL. Further, the IC50 in data set [2] was 65.6 µM.
As to `O=C(Nc1nc(-c2ccc(Br)cc2)cs1)c1ccccc1`, the MIC against Staphylococcus aureus, in the data set on Escherichia coli, against Pseudomonas aeruginosa and in the data set on Bacillus spizizenii was above 100 µg/mL throughout.
In the case of `CC1(C)S[C@@H]2[C@H](NC(=O)Cc3ccccc3)C(=O)N2[C@H]1C(=O)O` [PENICILLIN G], the MIC was 6.25 µg/mL (≈ 18.7 µM) in the data set with Staphylococcus aureus, 3.13 µg/mL (≈ 9.36 µM) in the data set on Escherichia coli, 6.25 µg/mL (≈ 18.7 µM) against Pseudomonas aeruginosa and 1.56 µg/mL (≈ 4.67 µM) in the data set with Bacillus spizizenii.
As to `O=C(Cc1cccc(Br)c1)Nc1nc(-c2ccc(Br)cc2)cs1`, the MIC in the data set with Staphylococcus aureus was found to be 6.25 µg/mL (≈ 13.8 µM); with Escherichia coli, 6.25 µg/mL (≈ 13.8 µM); against Pseudomonas aeruginosa, 12.5 µg/mL (≈ 27.6 µM); with Bacillus spizizenii, 6.25 µg/mL (≈ 13.8 µM). In data set [1], this compound returned an LC30 above 10000 µg/mL. This compound yielded a half-maximal inhibitory concentration (IC50) in data set [2] of 9.8 µM.
With `CCOc1ccc(CC(=O)Nc2nc(-c3ccccc3)cs2)cc1OCC`, the MIC with Staphylococcus aureus was above 100 µg/mL; against Escherichia coli it was 50 µg/mL (≈ 131 µM); against Pseudomonas aeruginosa, 50 µg/mL (≈ 131 µM); with Bacillus spizizenii, above 100 µg/mL.
With `O=C(Nc1nc(-c2ccc(Br)cc2)cs1)c1ccc2ccccc2c1`, the minimal inhibitory concentration (MIC) in the data set on Staphylococcus aureus, against Escherichia coli, in the data set with Pseudomonas aeruginosa and in the data set with Bacillus spizizenii was above 100 µg/mL in each case.
For the compound `O=C(Cc1ccc(Br)cc1)Nc1nc(-c2ccccc2)cs1`, the minimal inhibitory concentration (MIC) against Staphylococcus aureus turned out to be 50 µg/mL (≈ 134 µM); against Escherichia coli, 50 µg/mL (≈ 134 µM); in the data set with Pseudomonas aeruginosa it was 50 µg/mL (≈ 134 µM); in the data set on Bacillus spizizenii it was 25 µg/mL (≈ 67 µM).
Regarding `O=C(Nc1nc(-c2ccccc2)cs1)c1ccccc1`, the minimum inhibitory concentration (MIC) in the data set with Staphylococcus aureus, in the data set with Escherichia coli, against Pseudomonas aeruginosa and against Bacillus spizizenii was above 100 µg/mL each time.
For the compound `O=C(Cc1ccccc1)Nc1nc(-c2ccc(Br)cc2)cs1`, the MIC in the data set on Staphylococcus aureus stood at 25 µg/mL (≈ 67 µM); against Escherichia coli, 50 µg/mL (≈ 134 µM); in the data set on Pseudomonas aeruginosa it was 50 µg/mL (≈ 134 µM); with Bacillus spizizenii, 25 µg/mL (≈ 67 µM).
For the compound `NC[C@H]1O[C@H](O[C@H]2[C@H](O)[C@@H](O[C@H]3O[C@H](CO)[C@@H](O)[C@H](N)[C@H]3O)[C@H](N)C[C@@H]2N)[C@H](N)[C@@H](O)[C@@H]1O` [BEKANAMYCIN], the MIC is 3.13 µg/mL (≈ 6.47 µM) against Staphylococcus aureus, 1.56 µg/mL (≈ 3.23 µM) against Escherichia coli, 3.13 µg/mL (≈ 6.47 µM) against Pseudomonas aeruginosa and 0.39 µg/mL (≈ 0.807 µM) in the data set on Bacillus spizizenii.
Regarding `O=C(Cc1cccc(Br)c1)Nc1nc(-c2ccccc2)cs1`, the minimal inhibitory concentration (MIC) was 3.13 µg/mL (≈ 8.39 µM) in the data set on Staphylococcus aureus, 12.5 µg/mL (≈ 33.5 µM) in the data set with Escherichia coli, 12.5 µg/mL (≈ 33.5 µM) with Pseudomonas aeruginosa and 6.25 µg/mL (≈ 16.7 µM) with Bacillus spizizenii. The same compound showed an LC30 in data set [1] above 10000 µg/mL. For the same compound, in data set [2], the IC50 worked out at 26.9 µM.
